Source: US9120820B2, “Fluorescent molecular probes for use in assays that measure test compound competitive binding with SAM-utilizing proteins” (CAYMAN CHEMICAL COMPANY, INCORPORATED, priority 2011, dated 2015)

Tests used:
Format in all cases: biochemical
[1] = target: T1, PRMT1 (Homo sapiens, UniProt Q99873); assay: Radiometric methyltransferase assay, PRMT1; conditions: PRMT1 100 nM; compound 10 μM, 1 μM, or 0.1 μM; FIG. 13
T1 construct: purchased Cayman
Experimental: (§1) Reagents: Compound 16A was prepared by the method described in Example 4 and illustrated in FIG. 5. The Compounds 20A-iv and 20A-iii were prepared according to methods described in Example 6 and illustrated in FIG. 7. Enzymes were obtained from the Cayman Catalog with the exception of PRMT4 and PRMT6, which were produced in baculovirus and purified to near homogeneity using Ni-affinity chromatography. Human core histones were purified from HeLa nuclear pellet per the method of Coté et al. S-adenosylmethionine (SAM) was obtained from Sigma-Aldrich (Cat #A7007) and S-[methyl-3H]-SAM was obtained from Perkin-Elmer ([…]). Methods: […] To this was added enzyme diluted to provide a final assay concentration (GLP: 10 nM; PRMT1: 100 nM; SET7/9: 120 nM; PRDM9: 120 nM; PRMT4: 150 nM; PRMT6: 120 nM; G9a: 200 nM) and the compound was allowed to preincubate for 10 minutes at room temperature. […] Samples were mixed immediately after quenching and transferred to a 96-well GFC Uni-Filter microtiter filter plate (Perkin Elmer, Cat#6005174) that contained 50 μl of 20% TCA. Samples were allowed to precipitate for at least 5 minutes at room temperature. The samples were filtered onto the GFC membrane and washed four times with 100 μl of 10% TCA and once with 100 μl of 95% EtOH. To each well was added 25 μl of MicroScint-20 (Perkin-Elmer Cat#6013621) and samples were analyzed using a TopCount NXT microplate scintillation counter. The experiment was performed one time in duplicate for all compound concentrations tested and in triplicate for the vehicle and no enzyme controls. All data was analyzed in GraphPad Prism (v. 5.04).

[2] = target: T2, PRMT4 (Homo sapiens, UniProt Q86X55); assay: Radiometric methyltransferase assay, PRMT4; conditions: PRMT4 150 nM; compound 10 μM, 1 μM, or 0.1 μM; FIG. 13
T2 construct: made in house
T2 sequence (Q86X55 1-608): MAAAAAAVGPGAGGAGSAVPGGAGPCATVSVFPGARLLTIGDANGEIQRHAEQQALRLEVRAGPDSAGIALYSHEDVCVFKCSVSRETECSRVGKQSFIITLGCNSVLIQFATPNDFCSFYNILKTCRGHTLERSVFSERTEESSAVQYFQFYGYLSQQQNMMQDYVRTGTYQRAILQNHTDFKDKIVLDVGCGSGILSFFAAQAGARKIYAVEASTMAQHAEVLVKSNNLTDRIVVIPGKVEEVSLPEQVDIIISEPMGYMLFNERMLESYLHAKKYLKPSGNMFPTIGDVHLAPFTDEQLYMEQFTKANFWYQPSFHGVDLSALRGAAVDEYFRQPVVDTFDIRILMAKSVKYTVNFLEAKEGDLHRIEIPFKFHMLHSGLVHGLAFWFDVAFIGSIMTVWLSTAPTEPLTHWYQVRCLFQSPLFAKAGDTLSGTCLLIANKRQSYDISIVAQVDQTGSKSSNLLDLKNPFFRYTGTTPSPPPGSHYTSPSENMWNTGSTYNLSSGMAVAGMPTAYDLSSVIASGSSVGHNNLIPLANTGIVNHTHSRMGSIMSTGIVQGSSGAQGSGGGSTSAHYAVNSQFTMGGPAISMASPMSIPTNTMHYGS
Experimental: as §1

[3] = target: T3, G9a (Homo sapiens, UniProt Q96KQ7); assay: Radiometric methyltransferase assay, G9a; conditions: G9a 200 nM; compound 10 μM, 1 μM, or 0.1 μM; FIG. 13
T3 construct: purchased Cayman 49010353
T3 sequence (Q96KQ7 1-1210): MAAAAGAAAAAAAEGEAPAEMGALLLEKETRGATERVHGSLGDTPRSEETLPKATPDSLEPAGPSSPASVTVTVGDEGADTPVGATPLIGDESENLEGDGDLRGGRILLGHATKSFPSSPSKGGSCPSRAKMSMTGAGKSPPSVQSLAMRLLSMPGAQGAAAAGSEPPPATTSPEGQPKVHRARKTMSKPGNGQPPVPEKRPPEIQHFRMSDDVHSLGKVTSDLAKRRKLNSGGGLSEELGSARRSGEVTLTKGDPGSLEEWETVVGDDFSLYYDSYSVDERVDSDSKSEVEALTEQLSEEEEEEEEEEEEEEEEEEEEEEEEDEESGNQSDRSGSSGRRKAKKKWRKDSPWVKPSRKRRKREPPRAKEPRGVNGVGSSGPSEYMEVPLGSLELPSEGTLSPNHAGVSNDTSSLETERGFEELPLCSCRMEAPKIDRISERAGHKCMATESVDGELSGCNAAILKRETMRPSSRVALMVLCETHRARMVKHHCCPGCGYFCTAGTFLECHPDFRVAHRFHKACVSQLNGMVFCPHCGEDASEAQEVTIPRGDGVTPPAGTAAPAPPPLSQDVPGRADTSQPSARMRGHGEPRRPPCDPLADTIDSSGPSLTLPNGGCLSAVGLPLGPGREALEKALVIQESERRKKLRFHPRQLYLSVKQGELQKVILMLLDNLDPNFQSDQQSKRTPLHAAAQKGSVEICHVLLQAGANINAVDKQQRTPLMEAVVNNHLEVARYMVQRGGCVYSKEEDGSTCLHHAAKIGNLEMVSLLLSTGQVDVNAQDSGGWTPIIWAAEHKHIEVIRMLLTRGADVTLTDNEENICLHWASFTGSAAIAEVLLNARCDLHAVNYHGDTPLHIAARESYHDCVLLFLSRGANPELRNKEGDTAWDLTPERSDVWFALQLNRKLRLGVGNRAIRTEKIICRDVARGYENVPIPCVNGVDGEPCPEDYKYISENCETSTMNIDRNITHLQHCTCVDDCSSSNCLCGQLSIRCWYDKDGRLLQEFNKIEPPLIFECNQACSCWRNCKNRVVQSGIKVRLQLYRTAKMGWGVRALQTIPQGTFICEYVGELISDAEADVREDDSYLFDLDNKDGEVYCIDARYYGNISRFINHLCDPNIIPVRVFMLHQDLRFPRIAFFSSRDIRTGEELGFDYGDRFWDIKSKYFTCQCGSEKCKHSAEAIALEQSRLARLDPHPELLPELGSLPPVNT
Experimental: as §1

[4] = target: T4, PRMT6 (Homo sapiens, UniProt Q96LA8); assay: Radiometric methyltransferase assay, PRMT6; conditions: PRMT6 120 nM; compound 10 μM, 1 μM, or 0.1 μM; FIG. 13
T4 construct: made in house; host or cells: baculovirus expression
T4 sequence (Q96LA8 whole entry, species assumed): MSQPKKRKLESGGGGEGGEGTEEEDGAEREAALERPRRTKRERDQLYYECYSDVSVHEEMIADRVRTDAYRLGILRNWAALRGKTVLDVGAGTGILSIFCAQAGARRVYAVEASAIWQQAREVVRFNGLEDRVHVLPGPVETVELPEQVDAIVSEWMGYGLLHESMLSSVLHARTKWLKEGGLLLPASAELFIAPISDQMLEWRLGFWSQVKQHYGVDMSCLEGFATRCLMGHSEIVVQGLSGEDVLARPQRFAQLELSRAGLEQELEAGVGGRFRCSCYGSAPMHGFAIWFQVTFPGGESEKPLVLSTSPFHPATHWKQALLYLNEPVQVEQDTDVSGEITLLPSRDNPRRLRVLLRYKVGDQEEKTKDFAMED
Experimental: as §1

[5] = target: T5, PRDM9 (Homo sapiens, UniProt Q9NQV7); assay: Radiometric methyltransferase assay, PRDM9; conditions: PRDM9 120 nM; compound 10 μM, 1 μM, or 0.1 μM; FIG. 13
T5 construct: purchased Cayman
T5 sequence (Q9NQV7 whole entry, species assumed): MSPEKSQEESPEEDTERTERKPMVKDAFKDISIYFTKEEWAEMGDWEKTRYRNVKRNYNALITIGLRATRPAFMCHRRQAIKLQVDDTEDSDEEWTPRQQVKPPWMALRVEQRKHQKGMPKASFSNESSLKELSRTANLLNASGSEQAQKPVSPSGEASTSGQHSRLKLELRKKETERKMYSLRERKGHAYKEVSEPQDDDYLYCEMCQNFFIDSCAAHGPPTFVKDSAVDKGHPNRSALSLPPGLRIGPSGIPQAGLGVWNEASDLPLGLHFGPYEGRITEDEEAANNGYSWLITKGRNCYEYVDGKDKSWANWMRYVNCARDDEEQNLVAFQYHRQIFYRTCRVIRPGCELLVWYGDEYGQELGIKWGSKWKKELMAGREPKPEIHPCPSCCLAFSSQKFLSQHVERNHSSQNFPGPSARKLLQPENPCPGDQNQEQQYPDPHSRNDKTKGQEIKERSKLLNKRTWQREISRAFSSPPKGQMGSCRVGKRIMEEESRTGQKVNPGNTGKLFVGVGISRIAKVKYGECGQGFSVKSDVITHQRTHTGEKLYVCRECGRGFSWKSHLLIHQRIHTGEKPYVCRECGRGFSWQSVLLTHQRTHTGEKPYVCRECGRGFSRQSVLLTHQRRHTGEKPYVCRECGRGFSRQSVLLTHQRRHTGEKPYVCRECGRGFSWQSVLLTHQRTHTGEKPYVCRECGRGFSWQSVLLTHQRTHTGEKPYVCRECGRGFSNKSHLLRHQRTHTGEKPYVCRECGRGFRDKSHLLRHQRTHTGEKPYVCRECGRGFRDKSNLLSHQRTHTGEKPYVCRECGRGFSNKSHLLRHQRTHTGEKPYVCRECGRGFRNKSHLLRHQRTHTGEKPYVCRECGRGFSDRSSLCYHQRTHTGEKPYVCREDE
Experimental: as §1

T1 sequence (Q99873 whole entry): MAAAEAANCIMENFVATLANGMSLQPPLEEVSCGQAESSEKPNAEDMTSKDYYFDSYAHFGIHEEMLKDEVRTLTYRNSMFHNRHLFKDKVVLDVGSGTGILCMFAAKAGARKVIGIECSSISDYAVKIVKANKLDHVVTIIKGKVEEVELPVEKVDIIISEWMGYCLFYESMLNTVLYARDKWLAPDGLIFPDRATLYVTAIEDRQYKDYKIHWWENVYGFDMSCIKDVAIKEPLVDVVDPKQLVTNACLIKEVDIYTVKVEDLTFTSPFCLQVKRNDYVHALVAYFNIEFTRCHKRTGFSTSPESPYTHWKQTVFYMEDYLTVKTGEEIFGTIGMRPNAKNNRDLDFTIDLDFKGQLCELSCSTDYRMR

CSC[C@H]1O[C@@H](n2cnc3c(N)nc(NCCNC(=O)OC(C)(C)C)nc32)[C@H](O)[C@@H]1O [Compound 16A, tert-butyl (2-((6-amino-9-((2R,3R,4S,5S)-3,4-dihydroxy-5-((methylthio)methyl)tetrahydrofuran-2-yl)-9H-purin-2-yl)amino)ethyl)carbamate]
inhibition of enzymatic activity [1]: inhibits
inhibition of enzymatic activity [2]: inhibits
inhibition of enzymatic activity [3]: inhibits
inhibition of enzymatic activity [4]: not dramatically altering the activity
inhibition of enzymatic activity [5]: inhibits

CCNC(=O)[C@H]1O[C@@H](n2cnc3c(N)nc(Cl)nc32)[C@H](O)[C@@H]1O [Compound 20A-iii, 2-chloroadenosine-5′-N-ethylcarboxamide]
inhibition of enzymatic activity [1]: did not show appreciable inhibition
inhibition of enzymatic activity [2]: did not show appreciable inhibition
inhibition of enzymatic activity [3]: did not show appreciable inhibition
inhibition of enzymatic activity [4]: some modest inhibition
inhibition of enzymatic activity [5]: did not show appreciable inhibition

CCNC[C@H]1O[C@@H](n2cnc3c(N)nc(Cl)nc32)[C@H](O)[C@@H]1O [Compound 20A-iv, 2-chloroadenosine-5′-N-ethylamine]
inhibition of enzymatic activity [1]: did not show appreciable inhibition
inhibition of enzymatic activity [2]: did not show appreciable inhibition
inhibition of enzymatic activity [3]: did not show appreciable inhibition
inhibition of enzymatic activity [4]: did not show appreciable inhibition
inhibition of enzymatic activity [5]: did not show appreciable inhibition
